{"source": "paper PMC7887336", "about": "“Altered functional properties of the codling moth Orco mutagenized in the intracellular loop-3” (Scientific Reports, 2021)", "key": {"CpomOrco [1]": {"target": "T1, CpomOrco (Cydia pomonella, UniProt H9A5M2)", "T1 sequence (H9A5M2 entry or part of it)": "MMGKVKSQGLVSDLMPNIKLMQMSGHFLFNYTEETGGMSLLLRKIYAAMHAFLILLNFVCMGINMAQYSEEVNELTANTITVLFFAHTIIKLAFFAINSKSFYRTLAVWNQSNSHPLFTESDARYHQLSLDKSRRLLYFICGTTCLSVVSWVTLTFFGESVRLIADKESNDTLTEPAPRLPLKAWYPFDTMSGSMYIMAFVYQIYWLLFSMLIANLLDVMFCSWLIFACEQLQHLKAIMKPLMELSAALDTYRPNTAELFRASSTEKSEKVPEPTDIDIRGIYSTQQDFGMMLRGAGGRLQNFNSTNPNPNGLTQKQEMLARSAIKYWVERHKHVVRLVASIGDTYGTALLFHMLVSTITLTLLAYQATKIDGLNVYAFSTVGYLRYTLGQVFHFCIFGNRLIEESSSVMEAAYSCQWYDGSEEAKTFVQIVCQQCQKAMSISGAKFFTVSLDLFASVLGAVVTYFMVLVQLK", "assay": "Whole-cell voltage-clamp recordings of HEK293A cells transfected with CpomOrco, VUAA1", "type": "cell-based", "conditions": "for pEC50: EC50 (K1/2)", "method": "(§1) HEK293 cells lines (HEK293A/HEK293T) were grown in HEK cell media [Dulbecco's modified Eagle's medium containing 10% fetal bovine serum (MP Biomedicals, Solon, OH, USA), 2.0 mM L-glutamine, and 100 µg/mL penicillin/streptomycin (Invitrogen)] at 37 °C and 5% CO2. To test transient expression of wild type CpomOrco and CpomOrco^Q417H variant for calcium imaging and patch-clamp recording, 35-mm petri dishes containing semi-confluent HEK293A cells were transiently transfected. Cells were transfected with 0.6 µg of pcDNA40-DEST carrying the coding sequence of the CpomOrco variant (depending on the experiments). To report expression for calcium imaging experiments, 0.6 µg of a separate plasmid DNA [pEBFP2-Nuc, a gift from Robert Campbell (Addgene plasmid # 1489352)] carrying the coding sequence for a blue fluorescent protein (EBFP) was co-transfected. To report expression in patch-clamp recordings, 1.0 µg of a separate plasmid DNA (pXOOM, Clontech, Mountain View, CA, USA) carrying the coding sequence for a green fluorescent protein (GFP) was co-transfected. Expressions of fluorescent reporter genes were under the regulation of the same promoter for Cpom-genes (CMV). For specific experiments, co-transfections were conducted combining an additional 1.2 µg of pcDNA40-DEST/CpomOR3 or pcDNA40-DEST/CpomOR6a, as we previously described. Co-transfections with CpomOR3 were performed for dose–response experiments to pear ester: CpomOR3 was co-expressed with CpomOrco variants by the use of HEK293T (Fig. 3b); given the reported functional co-expression data of the CpomOrco + OR3 heteromers by the use of these specific cells. In brief, transfection DNAs were dissolved in 100 µL sterile DMEM, mixed with 3.0 µL Calfectin (SignaGen, Rockville, MD, USA) following the recommended protocol. Transfections were conducted overnight for up to 18 h, HEK cell media was replaced with 2.0 mL fresh media to incubate cells at 37 °C for up to 6–8 h, at which point part of the cell culture was spread in the middle of a 35-mm plate as individual cells or small clusters and rinsed at the sides with 2.0 mL fresh HEK media. After splitting, cells were allowed to recover for at least 1 day prior to calcium imaging.\nElectrophysiological experiments were performed according with the same procedures we previously described. Patch pipettes were fabricated from borosilicate capillary glass (BF150-86–10, Sutter Instrument, CA, USA) using a Flaming-Brown micropipette puller (P-87, Sutter Instrument). Only patches with initial cell-attached seal resistance estimated higher than 1.0 GOhms were used in the experiments. Intracellular (pipette) solution for whole-cell experiments was KCl 140 mM, EGTA 1 mM, Hepes 5 mM, MES 5 mM, pH 8.0 or pH 5.5 (depending on the experiment) adjusted with either NaOH or HCl, standard Na^+ 140 mM. bath solution was usually NaCl 140 mM, EGTA 0.1 mM, Hepes 10 mM, pH 7.4 (adjusted with Tris-base or NaOH). VUAA1 doses (0–1000 µM) were added to the extracellular test solutions.\nAs described in methods of Cattaneo et al.[14], GFP positive HEK293A cells were visualized using either an Axiovert 100 inverted microscope (Carl Zeiss, Inc., München, Germany) equipped with a mercury vapour compressed-arc lamp (HBO100) coupled to widefield fluorescence filter set (1114–459, Carl Zeiss, Inc.) or Olympus IX-71 inverted microscope described above (Olympus Corp.). The Orco channel-mediated currents were investigated using whole-cell patch-clamp recordings. The currents were measured with a 200B patch-clamp amplifier (Molecular Devices) and a digital interface (Digidata 1320A, Molecular Devices), low pass filtered at 5.0 kHz, sampled at 1–2 kHz. Analysis of the data was carried out using pCLAMP 9.2/10.5 software (Molecular Devices) and SigmaPlot 11 (Systat Software Inc). […]"}, "CpomOrco+OR6a": {"test_system": "CpomOrco+OR6a", "assay": "VUAA1 responsiveness (Fluo4 +) of HEK293A cells co-transfected with CpomOrco and CpomOR6a", "type": "cell-based, Cydia pomonella", "conditions": "for Fluo4 + cells, %: of bright field cells", "method": "(§2) HEK293 cells lines (HEK293A/HEK293T) were grown in HEK cell media [Dulbecco's modified Eagle's medium containing 10% fetal bovine serum (MP Biomedicals, Solon, OH, USA), 2.0 mM L-glutamine, and 100 µg/mL penicillin/streptomycin (Invitrogen)] at 37 °C and 5% CO2. To test transient expression of wild type CpomOrco and CpomOrco^Q417H variant for calcium imaging and patch-clamp recording, 35-mm petri dishes containing semi-confluent HEK293A cells were transiently transfected. Cells were transfected with 0.6 µg of pcDNA40-DEST carrying the coding sequence of the CpomOrco variant (depending on the experiments). To report expression for calcium imaging experiments, 0.6 µg of a separate plasmid DNA [pEBFP2-Nuc, a gift from Robert Campbell (Addgene plasmid # 1489352)] carrying the coding sequence for a blue fluorescent protein (EBFP) was co-transfected. To report expression in patch-clamp recordings, 1.0 µg of a separate plasmid DNA (pXOOM, Clontech, Mountain View, CA, USA) carrying the coding sequence for a green fluorescent protein (GFP) was co-transfected. Expressions of fluorescent reporter genes were under the regulation of the same promoter for Cpom-genes (CMV). For specific experiments, co-transfections were conducted combining an additional 1.2 µg of pcDNA40-DEST/CpomOR3 or pcDNA40-DEST/CpomOR6a, as we previously described. […]\n(§3) Fluorescence imaging was performed using settings optimized for Imaging Workbench 6 software (INDEC BioSystems, Santa Clara, CA, USA)[14]. […] Each cell was assigned a region of interest (ROI) and changes in fluorescence intensity within each ROI were measured and expressed as the fractional change in fluorescence intensity (dF). Stored time series image stacks were analysed off-line using Imaging Workbench 6, Clampfit 10.5 (Molecular Devices) and SigmaPlot 11 (Systat Software Inc., San Jose, CA, USA). […]"}, "CpomOrco^Q417H+OR6a": {"test_system": "CpomOrco^Q417H+OR6a", "assay": "VUAA1 responsiveness (Fluo4 +) of HEK293A cells co-transfected with CpomOrco^Q417H and CpomOR6a", "type": "cell-based, Cydia pomonella", "conditions": "for Fluo4 + cells, %: of bright field cells", "method": "as §2, §3"}, "CpomOrco [2]": {"target": "T1, CpomOrco", "assay": "Calcium imaging (Fluo-4) of HEK293A cells transfected with wild-type CpomOrco, VUAA1 stimulation", "type": "cell-based", "conditions": "for Fluo4 + cells, %: of bright field cells; for pEC50 / Hill coefficient / maximum response (Hill fit of calcium response amplitudes): HEK293A, CpomOrco", "method": "as §1\nActivation of HEK293 cells transfected with CpomOrco variants was tested using the same procedures we previously described. Petri dishes were incubated for 1 h at room temperature in 1.0 mL HEK Ca^++ Ringer (mM: 140 NaCl, 5.0 KCl, 2.0 CaCl2, 10 HEPES, pH 7.4) containing the fluorescent calcium indicator Fluo-4AM (Invitrogen) at 5–15 µM prepared with 0.2–0.06% Pluronic F-127 (Invitrogen). To monitor intracellular pH, HEK293A cells were loaded with 10.0 µL BCECF dye (Anaspec, Fremont, CA).\nAs reported in Cattaneo et al.[14], the buffer was removed after incubation, cells were rinsed with 4.0 mL fresh HEK Ca^++ Ringer and placed on the stage of an inverted microscope (Olympus IX-71, Olympus Corp., Tokyo, Japan) equipped with a cooled CCD camera (ORCA R2, Hamamatsu, Hamamatsu City, Japan). Cells were continuously superfused with Ca^++ Ringer using two gravity fed perfusion contours. The […] contour washing the cells (~ 250 µL/min) was switched rapidly to the stimulus contour using a multi-channel rapid solution changer (RSC-160, Bio-Logic, Claix, France) under the software control of Clampex 9 (Molecular Devices, Sunnyvale, CA, USA).\nFluorescence imaging was performed using settings optimized for Imaging Workbench 6 software (INDEC BioSystems, Santa Clara, CA, USA)[14]. The non-responsive cells were not included in these analyses. Each cell was assigned a region of interest (ROI) and changes in fluorescence intensity within each ROI were measured and expressed as the fractional change in fluorescence intensity (dF). Stored time series image stacks were analysed off-line using Imaging Workbench 6, Clampfit 10.5 (Molecular Devices) and SigmaPlot 11 (Systat Software Inc., San Jose, CA, USA). Dose–response curves were approximated using Hill equation. […]"}, "[3]": {"conditions": "intracellular pH = 5.5, extracellular pH 7.4, -50 mV"}, "[4]": {"conditions": "intracellular pH = 8.0, extracellular pH 7.4, -50 mV"}, "[5]": {"conditions": "after 30 min incubation at low pHe = 4.7"}}, "note": "pEC50: −log10 of the molar value. Several values for one entry are separate records, joined by “and”; a condition that tells them apart may be missing. Identical values can stand only once.", "data": [{"compound": "CCc1ccc(NC(=O)CSc2nnc(-c3cccnc3)n2CC)cc1", "note": "[VUAA1, acetamide,N-(4-ethylphenyl)-2-[[4-ethyl-5-(3-pyridinyl)-4H-1,2,4-triazol-3-yl]thio]-]", "values": [{"measurement": "pEC50", "setting": "CpomOrco [1]; [3]", "result": "~3.25"}, {"measurement": "pEC50", "setting": "CpomOrco [1]; [4]", "result": "~3.39"}, {"measurement": "h (Hill equation)", "setting": "CpomOrco [1]; intracellular pH = 5.5", "result": "~ 5 ± 3.9"}, {"measurement": "number of cells sensitive to VUAA1", "setting": "CpomOrco [1]; intracellular pH = 5.5, GFP positive cells tested", "result": "3 out of 4"}, {"measurement": "Imax (whole-cell current amplitude, Hill fit)", "setting": "CpomOrco [1]; [3]", "result": "~ 196 pA and ~ 196 + -32 pA"}, {"measurement": "h (Hill equation)", "setting": "CpomOrco [1]; intracellular pH = 8.0", "result": "~ 4 ± 0.6"}, {"measurement": "number of cells sensitive to VUAA1", "setting": "CpomOrco [1]; intracellular pH = 8.0, GFP positive cells tested", "result": "8 out of 13"}, {"measurement": "Imax (whole-cell current amplitude, Hill fit)", "setting": "CpomOrco [1]; [4]", "result": "~ 784 pA and ~ 784 ± 40 pA"}, {"measurement": "Fluo4 + cells, %", "setting": "CpomOrco+OR6a; 800 µM VUAA1, Experiment 3, CpomOrco+OR6a", "result": "48,34%"}, {"measurement": "Fluo4 + cells, %", "setting": "CpomOrco+OR6a; 800 µM VUAA1, Experiment 4, CpomOrco+OR6a", "result": "49,71%"}, {"measurement": "percentage of VUAA-responsive cells", "setting": "CpomOrco+OR6a; 800 µM VUAA1, HEK293A co-transfected with CpomOrco, CpomOR6a and EBFP, range of two experiments", "result": "48.34–49.71%"}, {"measurement": "Fluo4 + cells, %", "setting": "CpomOrco^Q417H+OR6a; 800 µM VUAA1, Experiment 3, CpomOrcoQ417H+OR6a", "result": "8,41%"}, {"measurement": "Fluo4 + cells, %", "setting": "CpomOrco^Q417H+OR6a; 800 µM VUAA1, Experiment 4, CpomOrcoQ417H+OR6a", "result": "10,33%"}, {"measurement": "percentage of VUAA1 sensitive cells", "setting": "CpomOrco^Q417H+OR6a; 800 µM VUAA1, HEK293A co-transfected with CpomOrco^Q417H, CpomOR6a and EBFP, range of two experiments", "result": "8.41–10.33%"}, {"measurement": "Fluo4 + cells, %", "setting": "CpomOrco [2]; 800 µM VUAA1, Experiment 1, CpomOrco", "result": "30,99%"}, {"measurement": "Fluo4 + cells, %", "setting": "CpomOrco [2]; 800 µM VUAA1, Experiment 2, CpomOrco", "result": "35,06%"}, {"measurement": "percentage of cells sensitive to VUAA1 (relative to total number of visible cells)", "setting": "CpomOrco [2]; 800 µM VUAA1, HEK293A transfected with CpomOrco and EBFP, range of two experiments", "result": "30.99–35.06%"}, {"measurement": "pEC50", "setting": "CpomOrco [2]; [5]", "result": "~3.59"}, {"measurement": "Hill coefficient", "setting": "CpomOrco [2]; [5]", "result": "~ 2.5 ± 4.3"}, {"measurement": "maximum response (Hill fit of calcium response amplitudes)", "setting": "CpomOrco [2]; after 30 min incubation at low pHe = 4.7, n = 84, constraints applied to fit", "result": "~ 1.3 ± 0.7 ∆F and 1.3 ∆F"}, {"measurement": "Hill coefficient", "setting": "CpomOrco [2]; control pH conditions (pH 7.4)", "result": "~ 2.4 ± 0.1"}, {"measurement": "pEC50", "setting": "CpomOrco [2]; control pH conditions (pH 7.4), Hill fit", "result": "~3.80"}, {"measurement": "maximum response (Hill fit of calcium response amplitudes)", "setting": "CpomOrco [2]; control pH conditions (pH 7.4), N = 123 cells", "result": "~ 6.3 ∆F and ~ 6.3 ± 0.1 ∆F and 6.3 ∆F"}]}]}
